Data: patent publication EP2060564A1, “Non-peptidic promoters of apoptosis” (Ludwig-Maximilians-Universität München, priority 2007, dated 2009)
Where “and” joins values, the source holds several entries; their conditions need not be identical. Equal entries are not always repeated.

Columns and labels:
[1] = test system: Human leukemia Jurkat T cells; test: Quantification of apoptosis (Nicoletti, PI staining, flow cytometry) in Jurkat cells; assay type: cell-based; settings: mean value and standard deviation (C.I.95), n = 3
Experimental: Cell Culture. Human leukemia Jurkat T cells (clone J16), Jurkat T-cells stably transfected with either empty vector (Jurkat vector, pBabe Jurkat) or XIAP (Jurkat-XIAP) as well as the BIR-3 domain only (BIR-3-sp-RING-Jurkat) (kindly provided by Dr. Colin Duckett at the University of Michigan) were cultured (37°C and 5% CO2 in RPMI 1640 containing 2 mM L-glutamine (PAN Biotech, Aidenbach, Germany) supplemented with 10% FCS gold (PAA Laboratories, Cölbe, Germany) and 1% Pyruvat (Sigma Deisenhofen, Germany).
Detection an Quantification of Apoptosis. Quantification of apoptosis was performed according to Nicoletti et al. (J Immunol. Methods (1991) 139, 271-279). Briefly, cells were incubated for 24 h in a hypotonic buffer (0.1% sodium citrate, 0.1% Triton-X-100 and 50 µg/ml PI) and analyzed by flow cytometry on a FACSCalibur (Becton Dickinson, Heidelberg, Germany). Nuclei to the left of the G1-peak containing hypodiploid DNA were considered apoptotic.
Compounds were first tested for their apoptotic potential in Jurkat cells alone as well as in combination with sub-optimal concentrations of etoposide. […] Similar results were obtained for compound II-1 (55.8% apoptotic cells). Table 1: Percentage of apoptotic Jurkat cells measured after application of medium control, 0.75 µM etoposide, 25 µM test substance, and a mixture of 0.75 µM etoposide and 25 µM test substance, respectively.a

XIAP = molecular target: T1, XIAP (Homo sapiens, UniProt P98170); test: Western Blot analysis of XIAP protein level; assay type: cell-based; settings: 25µM compound alone as well as in combination with 500nM etoposide; 16 and 24 h (Figure 5)
T1 construct: endogenous in cells
T1 sequence (P98170 whole entry): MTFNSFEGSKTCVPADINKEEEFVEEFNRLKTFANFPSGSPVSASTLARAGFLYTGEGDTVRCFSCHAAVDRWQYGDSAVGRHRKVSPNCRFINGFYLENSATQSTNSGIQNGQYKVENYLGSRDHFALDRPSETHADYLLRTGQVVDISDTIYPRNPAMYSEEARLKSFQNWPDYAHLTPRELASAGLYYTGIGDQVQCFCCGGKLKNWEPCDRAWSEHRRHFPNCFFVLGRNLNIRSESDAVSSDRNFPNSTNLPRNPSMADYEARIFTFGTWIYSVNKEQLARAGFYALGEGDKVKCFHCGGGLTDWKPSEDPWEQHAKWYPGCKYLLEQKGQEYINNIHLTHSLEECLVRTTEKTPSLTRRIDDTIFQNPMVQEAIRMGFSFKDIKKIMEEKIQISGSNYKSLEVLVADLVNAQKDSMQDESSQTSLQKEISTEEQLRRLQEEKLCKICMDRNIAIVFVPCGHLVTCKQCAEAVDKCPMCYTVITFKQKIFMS
Experimental: Figure 5: XIAP protein level is reduced by compound I-1. Cells were left untreated (CO) or treated with 25µM of compound I-1, 500nM etoposide or with combination of both for the indicated time periods. XIAP protein level was detected by Western Blot analysis. Ponceau S was used as loading control. A representative experiment out of three independent experiments is shown.
(§1) Western Blot Analysis. Cells were collected by centrifugation, washed with ice-cold PBS and lysed in 1% Triton X-100, 0.15 M NaCl and 30 mM Tris-HCl pH 7.5 with the protease inhibitor complete™ (Roche, Mannheim, Germany) for 30 min. Lysates were centrifuge at 10,000xg for 10 min at 4°C. Equal amounts of protein were separated by SDS-PAGE (12% for XIAP) transferred to polyvinylidene difluoride membranes (Immobilon-P™, Millipore, Eschborn, Germany). Equal protein loading was controlled by coomassie staining of gels. Membranes were blocked with 5% fat-free milk powder in PBS containing 0.05% Tween-20 (1 h) and incubated with specific antibodies against XIAP (mouse antibody IgG1, clone 28, BD Transduction Laboratories, Heidelberg, Germany) overnight at 4°C. Specific proteins were visualized by secondary antibodies conjugated to horseradish peroxidase and the ECL Plus™ Western Blotting detection reagent (Amersham Biosciences, Freiburg, Germany). […]

Wildtype Jurkat cells = test: Clonogenic assay; assay type: cell-based, Human; settings: 1h with 25µM compound and 500nM etoposide; colonies scored after 7 days (Figure 2)
Experimental: (§2) Figure 2: Compound I-1 sensitizes to a reduction of etoposide-induced clonogenic survival. Wild type Jurkat cells were left untreated (A) or treated for 1h with 25µM of compound I-1 (B), 500nM etoposide (C) or a combination of both (D). After replacement into fresh methylcellulose medium, cells were incubated for 7 days. Afterwards colony number was counted (E). Bars, the mean ± SE of three independent experiments. *** P<0.001 (Anova/Bonferroni). Figure 3: Compound I-1 increases initiator caspase activities. Wild type Jurkat cells were left untreated or treated with 25µM of compound I-1, 500nM etoposide or a combination of both for the indicated time periods. Fluorescence measurements were performed for caspase-9 (A) and caspase-3 (B). Protein concentration was used for normalization. Bars, the mean ± SE of three independent experiments performed in triplicate. *** P<0.001 (Anova/Bonferroni).
Clonogenic assay. Wildtype Jurkat cells were left untreated or treated for 1h with 25µM test compound, 500nM etoposide or a combination of both. Subsequently, cells were washed with PBS and resuspended in culture medium (5x10^5 cells/ml). Cell suspensions were diluted 1:10 with methylcellulose (0.52%) medium containing 40% FCS. Cells were seeded in 96-well plates (100 µl) and colonies were scored after 7 days of culture.

caspase-9 = test: Caspase-9 activity assay (Ac-LEHD-AFC substrate); assay type: cell-based, Human; settings: 25µM compound with 500nM etoposide, wild type Jurkat cells (Figure 3)
Experimental: as §2
(§3) Caspase-9/3 activity assay. Caspase-9/3 activity was measured using caspase-9(Ac-LEHD-AFC) or caspase 3(Ac-DEVD-AFC) substrates (both from Bachem AG, Bubendorf, Germany). […] The reading was performed in a plate-reading multifunction photometer (SPECTRAFLUOR PLUS, Tecan, Crailsheim, Germany). The activity was calculated from the difference between fluorescence in the 0 point and after 1h (for caspase-3) or after 3h (for caspase-9). […]

[2] = test system: caspase-9, caspase-3 and PARP; test: Western Blot analysis of caspase-9, caspase-3 and PARP cleavage; assay type: cell-based, Human; settings: 25µM compound with 500nM etoposide, wild type Jurkat cells, time dependent (Figure 4)
Experimental: Figure 4: Compound I-1 activates initiator caspases and induces PARP cleavage. Wild type Jurkat cells were left untreated or treated with 25µM of compound I-1, 500nM etoposide or a combination of both for the indicated time periods. Expression of caspase-9, caspase-3 and PARP was assessed by Western Blot analysis. Cleavage products are indicated by arrows. Ponceau S was used as loading control. A representative experiment out of three independent experiments is shown.
as §1, with “4°C.” for “4°C. Specific proteins were visualized by secondary antibodies conjugated to horseradish peroxidase and the ECL Plus™ Western Blotting detection reagent (Amersham Biosciences, Freiburg, Germany).”

caspase-3 = test: Caspase-3 activity assay (Ac-DEVD-AFC substrate); assay type: cell-based, Human; settings: 25µM compound with 500nM etoposide, wild type Jurkat cells (Figure 3)
Experimental: as §2, §3

[3] = test system: Jurkat cells overexpressing full-length XIAP or BIR-3/Ring; test: Quantification of apoptosis in Jurkat cell lines overexpressing XIAP or BIR-3/Ring; assay type: cell-based, Human; settings: wild type Jurkat cells and Jurkat cells overexpressing full-length XIAP or BIR-3/Ring; with low dose of etoposide (Figure 1)
Experimental: Figure 1: Compound I-1 sensitizes different Jurkat cell lines towards etoposide-induced apoptosis. Compound I-1 was tested in wildtype human leukemia Jurkat T cells (A), as well as in Jurkat cells stably transfected with empty vector (B), full-length XIAP overexpressing Jurkat cells (C) or the […] domain overexpressing Jurkat cells (D). Cell death was evaluated as described under "Materials and Methods". Bars, the mean ± SE of three independent experiments performed in triplicate. *** P<0.001 (Anova/Bonferroni), n.s., not significant.
Cell Culture. […]
Detection an Quantification of Apoptosis. Quantification of apoptosis was performed according to Nicoletti et al. (J Immunol. Methods (1991) 139, 271-279). Briefly, cells were incubated for 24 h in a hypotonic buffer (0.1% sodium citrate, 0.1% Triton-X-100 and 50 µg/ml PI) and analyzed by flow cytometry on a FACSCalibur (Becton Dickinson, Heidelberg, Germany). […]

[4] = Etoposide 0.75µM and Substance 25µM

Row | SMILES | Percentage of apoptotic Jurkat cells [1, 4] | Percentage of apoptotic Jurkat cells ([1]; Substance 25µM alone) [%] | XIAP protein level (XIAP) | clonogenic survival of etoposide treated Jurkat cells (Wildtype Jurkat cells) | caspase-9 activity induced by etoposide (caspase-9) | cleavage of caspase-9 and -3 proforms as well as PARP induced by etoposide [2] | caspase-3 activity induced by etoposide (caspase-3) | apoptosis induced by subtoxic concentrations of etoposide [3] | Percentage of apoptotic Jurkat cells ([1]; Etoposide 0.75µM alone)
1 | NNC(=O)CNC(c1ccccc1)c1cc(Br)ccc1NC(=O)c1ccccc1Br (centres unmarked) [II-1] | 55.8% and 55.82±12.23% | 10.69±1.25 |  |  |  |  |  |  | 
2 | CCc1cccc(CC)c1NC(=O)CN1CCC(NC(=O)c2cccc(F)c2)CC1 [Compound I-1] | 65.7% and 65.74±6.0% | 13.16±2.28 | able to reduce XIAP protein after 16 and 24 h | sensitizes for reduction of clonogenic survival of etoposide treated Jurkat cells | significantly increased | strong impact of compound I-1 on cleavage of caspase-9 and -3 proforms as well as PARP | significantly increased | potentiates apoptosis induced by subtoxic concentrations of etoposide | 
3 | COc1cc([C@@H]2c3cc4c(cc3[C@@H](O[C@@H]3O[C@@H]5CO[C@@H](C)O[C@H]5[C@H](O)[C@H]3O)[C@H]3COC(=O)[C@H]23)OCO4)cc(OC)c1O [Etoposide, reference compound] |  |  |  |  |  |  |  |  | 30.66±9.89% and 31.31±2.74%
